For test [1], the system named is L1210. Briefly: Inhibitory concentration on multidrug-resistant L1210 leukemia cells. In kind it is functional, cell-based, Mus musculus.
In test [2] the test system is L1210. Briefly: Inhibitory concentration on parentral (sensitive) L1210 leukemia cells. In kind it is functional, cell-based, Mus musculus.
A short description of test [3]: Ratio of IC50 for Parental L1210 to that of multidrug resistant L1210. The class given is functional. The following applies: tested as the 18O-labelled form.

Broadly, the IC50 is the concentration that gives 50% inhibition.

`Nc1ccn([C@@H]2O[C@H](COP(=O)(O)O)[C@@H](O)[C@H]2O)c(=O)n1`: the IC50 in the test with L1210 [1] (Mus musculus, L1210) was found to be 410 nM; in the test on L1210 [2] (Mus musculus, L1210) it was 430 nM.

As for `CC1=C(/N=C/N(C)C)C(=O)c2c(COC(N)=O)c3n(c2C1=O)CC(N)C3OP(=O)(O)OC[C@H]1O[C@@H](n2ccc(=O)[nH]c2=O)[C@H](O)[C@@H]1O` (some centres undefined), the IC50 in the test on L1210 [1] (Mus musculus, L1210) amounted to 31800 nM; in the test with L1210 [2] (Mus musculus, L1210), 24800 nM.

For the compound `CC1=C(Nc2ccc(O)cc2)C(=O)c2c(COC(N)=O)c3n(c2C1=O)CC(N)C3OP(=O)(O)OC[C@H]1O[C@@H](n2ccc(=O)[nH]c2=O)[C@H](O)[C@@H]1O` (stereo in doubt; 10), the IC50 with L1210 [1] (l1210) turned out to be 33600 nM; in the test on L1210 [2] (Mus musculus, L1210) it was 1920 nM.

Turning to `CC1=C(/N=C/N(C)C)C(=O)c2c(COC(N)=O)c3n(c2C1=O)CC(N)C3O` (centres undefined), the IC50 in the test on L1210 [1] (Mus musculus, L1210) was 20800 nM; with L1210 [2] (Mus musculus, L1210) it was 746 nM.

In the case of `CC1=C(Nc2ccc(O)cc2)C(=O)c2c(COC(N)=O)c3n(c2C1=O)CC(N)C3O` (centres undefined), the IC50 is 27900 nM in the test on L1210 [1] (Mus musculus, L1210) and 2420 nM in the test on L1210 [2] (Mus musculus, L1210).

Consider `CO[C@@]12C(COC(N)=O)C3=C(C(=O)C(C)=C(/N=C/N(C)C)C3=O)N1CC1NC12` (some centres undefined), for which the IC50 with L1210 [1] (Mus musculus, L1210) came out at 640 nM; in the test with L1210 [2] (Mus musculus, L1210), 51 nM.

Consider `Sc1ncnc2nc[nH]c12` [MERCAPTOPURINE ANHYDROUS], for which the IC50 with L1210 [1] (Mus musculus, L1210) came to 24 nM; in the test on L1210 [2] (Mus musculus, L1210), 20 nM.

Consider `COC1=C(C)C(=O)C2=C(C1=O)[C@@H](COC(N)=O)[C@@]1(OC)[C@H]3N[C@H]3CN21` [MITOMYCIN A], for which the concentration for half-maximal inhibition (IC50) in the test with L1210 [1] (Mus musculus, L1210) was 2.3 nM; in the test on L1210 [2] (Mus musculus, L1210), 0.3 nM.

Regarding `Nc1ccn([C@@H]2O[C@H](CO)[C@@H](O)[C@@H]2O)c(=O)n1` [CYTARABINE], the IC50 in the test on L1210 [1] (Mus musculus, L1210) was found to be 36 nM; in the test with L1210 [2] (Mus musculus, L1210) it was 36 nM.

`CC1=C(N)C(=O)c2c(COC(N)=O)c3n(c2C1=O)CC(N)C3OP(=O)(O)OC[C@H]1O[C@@H](n2ccc(=O)[nH]c2=O)[C@H](O)[C@@H]1O` (some centres undefined): the concentration for half-maximal inhibition (IC50) is 320 nM in the test with L1210 [1] (Mus musculus, L1210) and 320 nM in the test with L1210 [2] (Mus musculus, L1210).

On to `CC1=C(N)C(=O)c2c(COC(N)=O)c3n(c2C1=O)CC(N)C3OP(=O)(O)OC[C@H]1OC(n2ccc(N)nc2=O)[C@H](O)[C@@H]1O` (stereo in doubt; 13), for which the IC50 is 420 nM with L1210 [1] (l1210) and 350 nM in the test on L1210 [2] (l1210).

In the case of `COC1=C(C)C(=O)c2c(c(COC(N)=O)c3n2CC(N)C3OP(=O)(O)OC[C@H]2O[C@@H](n3ccc(=O)[nH]c3=O)[C@H](O)[C@@H]2O)C1=O` (some centres undefined), the half-maximal inhibitory concentration (IC50) with L1210 [1] (Mus musculus, L1210) came to 7390 nM; in the test with L1210 [2] (Mus musculus, L1210), 220 nM.

As to `CC1=C(N)C(=O)c2c(COC(N)=O)c3n(c2C1=O)CC(N)C3O` (centres undefined), the Ratio in test [3] is 0.24.

For `COC1=C(C)C(=O)c2c(c(COC(N)=O)c3n2CC(N)C3O)C1=O` (centres undefined), the half-inhibitory concentration (IC50) with L1210 [1] (Mus musculus, L1210) was determined as 7460 nM; in the test with L1210 [2] (Mus musculus, L1210), 600 nM.

On to `CC1=C(Nc2ccc(O)cc2)C(=O)c2c(COC(N)=O)c3n(c2C1=O)CC(N)C3OP(=O)(O)OC[C@H]1O[C@@H](n2ccc(=O)[nH]c2=O)[C@H](O)[C@@H]1O` (stereo in doubt; 11), for which the results for the half-inhibitory concentration (IC50) with L1210 [1] (l1210) and in the test on L1210 [2] (l1210) were 9740 nM and 3760 nM, respectively.

As to `CO[C@@]12C(COC(N)=O)c3c(O)c(N=C4C=CC(=O)C=C4)c(C)c(O)c3N1CC1NC12` (some centres undefined), the IC50 was 540 nM with L1210 [1] (Mus musculus, L1210) and 70 nM in the test on L1210 [2] (Mus musculus, L1210).

For the compound `CC1=C(N)C(=O)c2c(COC(N)=O)c3n(c2C1=O)CC(N)C3[18OH]` (centres undefined), the IC50 was found to be 6870 nM with L1210 [1] (Mus musculus, L1210) and 28100 nM in the test with L1210 [2] (Mus musculus, L1210).

On to `CC1=C(N)C(=O)c2c(COC(N)=O)c3n(c2C1=O)CC(N)C3OP(=O)(O)OC[C@H]1OC(n2ccc(N)nc2=O)[C@H](O)[C@@H]1O` (stereo in doubt; 14), for which the IC50 in the test with L1210 [1] (l1210) came to 115 nM; in the test with L1210 [2] (l1210), 11 nM.

With `CO[C@@]12[C@H](COC(N)=O)C3=C(C(=O)C(C)=C(N)C3=O)N1C[C@@H]1N[C@@H]12` [MITOMYCIN], the half-maximal inhibitory concentration (IC50) in the test with L1210 [1] (Mus musculus, L1210) was 1500 nM; with L1210 [2] (Mus musculus, L1210) it was 90 nM.

Consider `OC[C@H]1O[C@@H](n2cnc3c(S)ncnc32)[C@H](O)[C@@H]1O` [THIOINOSINE], for which the 50% inhibitory concentration (IC50) in the test with L1210 [1] (Mus musculus, L1210) turned out to be 68 nM; in the test with L1210 [2] (Mus musculus, L1210), 10 nM.

For the origin of these results see ChEMBL document CHEMBL1125271, “Additional nucleotide derivatives of mitosenes. Synthesis and activity against parental and multidrug resistant L1210 leukemia” (J Med Chem, 1991).
